Test results from patent US7282522B2, “Hydroxamic acid derivatives and the method for preparing thereof” (Amorepacific Corporation, priority 2003, dated 2007).

What was measured:
procollagen type I = assay: Effect on collagen biosynthesis (procollagen type I ELISA) in human fibroblasts; assay type: cell-based; conditions: 10^−4M, 24 hours, serum-free medium, relative to control group = 100
Protocol: Human fibroblasts were seeded into 24-well plate at 1×10^5 cells per well and then cultured to 90% of growth.
For each supernatant, procollagen production was measured with procollagen type I ELISA kit.

collagenase = assay: Inhibition of collagenase expression in human fibroblasts (ELISA kit); assay type: cell-based; conditions: 10^−4M, 24 hours, serum-free medium, relative to control group = 100
Protocol: Human fibroblasts were seeded into 96-well microtiter plate at 5,000 cells per well and then cultured to 90% of growth in DMEM (Dulbecco's Modified Eagle's Media) supplemented with 2.5% fetal bovine serum. Then, the fibroblastes were cultured in serum-free DMEM for 24 hours and treated for 24 hours with 10^−4M of hydroxamic acid derivatives of Examples 1˜55, retinol or retinoic acid in serum-free medium, and then the culture fluid was collected.
(§1) For each culture fluid, collagenase production was measured with collagenase kit (commercialized by AmershamPharmacia Biotech). Firstly, the culture fluid was added to 96-well plate spread with primary collagenase antibody and then antigen-antibody reaction was performed in an incubator for 3 hours. Later, chromophore-conjugated secondary antibody was added to the 96-well plate and then reacted for 15 minutes. Then, color former was added thereto, to induce development at room temperature for 15 minutes. 1M of sulfuric acid was added to stop the reaction. […] The color density depends on the progress of the reaction. The absorbance of the yellow 96-well plate was measured at 405 nm using absorptiometer. Collagenase expression was calculated by the following equation 1. Herein, the absorbance of the culture fluid collected from the medium with no material treated was used as a control. Collagenase expression (%)=(Absorbance of test group with said material treated/Absorbance of control group with no material treated)×100 [Equation 1]
Collagenase expression was evaluated as a relative value, in consideration that the value of control group with no material treated is 100.

elastase = assay: Inhibition of elastase expression in human fibroblasts (ELISA kit); assay type: cell-based; conditions: 10^−4M, 24 hours, serum-free medium, relative to control group = 100
Protocol: as §1, with “elastase” for “collagenase”, “Elastase” for “Collagenase”, “2.” for “1.”, “2]” for “1]”
Elastase expression was evaluated as a relative value, in consideration that the value of control group with no material treated is 100.

rabbits = assay: Primary skin irritation test on animals (Draize P.I.I.); conditions: depilated back; for P.I.I. (Primary Irritation Index): 0.5 ml of 1% solution in 1,3-butylene glycol:ethanol 7:3, observed 24 or 72 hours later; for Evaluation (skin irritation): 1% solution, according to Draize's P.I.I.
Protocol: Test was performed using fifty-six (56) of healthy male rabbits whose backs were depilated. […] 0.5ml of the test sample solution was applied to the right site of 2.5 cm×2.5 cm region on each of the depilated back. Left site with no sample treated was compared as a control. 24 hours or 72 hours later, skin abnormality such as erythema, crust and edema was observed.
Based on the score of skin response, skin irritation was evaluated according to Draize's P.I.I.(Primary Irritation Index) and compared with retinoic acid.

RARα = target: T1, RARα (Homo sapiens, UniProt P10276); assay: RARE-luciferase reporter assay in transfected CV-1 cells (affinity to retinoic acid receptor), RARα; assay type: cell-based; conditions: treated 24 hours at final concentration 10^−4M, control group 1000
T1 construct: expressed in transfected cells; host or cells: CV-1 cells (ATCC)
T1 sequence (P10276 1-462): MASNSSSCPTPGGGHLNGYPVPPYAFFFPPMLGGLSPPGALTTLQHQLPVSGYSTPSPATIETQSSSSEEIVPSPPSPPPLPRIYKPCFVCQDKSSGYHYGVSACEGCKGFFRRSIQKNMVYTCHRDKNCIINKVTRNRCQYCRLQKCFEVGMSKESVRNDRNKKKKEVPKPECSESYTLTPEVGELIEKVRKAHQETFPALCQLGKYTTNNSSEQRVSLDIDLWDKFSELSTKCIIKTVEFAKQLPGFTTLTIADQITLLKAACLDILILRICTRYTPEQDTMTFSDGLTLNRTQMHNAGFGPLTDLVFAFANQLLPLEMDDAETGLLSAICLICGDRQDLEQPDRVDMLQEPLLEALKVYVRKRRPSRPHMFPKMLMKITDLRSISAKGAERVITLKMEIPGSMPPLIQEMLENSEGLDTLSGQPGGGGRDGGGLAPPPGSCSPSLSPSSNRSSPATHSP
Text: This example illustrates affinities of hydroxamic acid derivatives obtained in Examples 1 to 55 to retinoic acid receptor, in comparison with retinol and retinoic acid.
(§2) Receptor-expression plasmid, pECE-RARα and pECE-RARγ were engineered by the prior method (Mol. Cell. Biol. 1996, 16, 1138-1149). RARE-tk-Luc, i.e. RARE reporter was obtained by inserting RARE fragment from b-RARE-tk-CAT into pGL3 luciferase basic vector. CV-1 cells were obtained from ATCC (American Type Culture Collection).
CV-1 cells were seeded into 96-well microtiter plate at 5,000 cells per well and cultured in DMEM (Dulbecco's Modified Eagle's Media) supplemented with 2.5% fetal bovine serum. 24 Hours later, the cells were transfected with 10 ng of pECE-RARα, long of pECE-RARγ, 100 ng of reporter plasmid and 100 ng of β-galactosidase-expression vector, using LipofectaminPlus (GIBCO BRL, grand island, N.Y.). 24 Hours post-transfection, the cells were treated for 24 hours with hydroxamic acid derivatives of Examples 1˜55 or retinol at a final concentration of 10^−4M or with retinoic acid at a final concentration of 10^−5M, which is 10 times lower concentration than those of the former.

RARγ = target: T2, RARγ (Homo sapiens, UniProt P13631); assay: RARE-luciferase reporter assay in transfected CV-1 cells (affinity to retinoic acid receptor), RARγ; assay type: cell-based; conditions: treated 24 hours at final concentration 10^−4M, control group 5000
T2 construct: expressed in transfected cells; host or cells: CV-1 cells (ATCC)
T2 sequence (P13631 1-454): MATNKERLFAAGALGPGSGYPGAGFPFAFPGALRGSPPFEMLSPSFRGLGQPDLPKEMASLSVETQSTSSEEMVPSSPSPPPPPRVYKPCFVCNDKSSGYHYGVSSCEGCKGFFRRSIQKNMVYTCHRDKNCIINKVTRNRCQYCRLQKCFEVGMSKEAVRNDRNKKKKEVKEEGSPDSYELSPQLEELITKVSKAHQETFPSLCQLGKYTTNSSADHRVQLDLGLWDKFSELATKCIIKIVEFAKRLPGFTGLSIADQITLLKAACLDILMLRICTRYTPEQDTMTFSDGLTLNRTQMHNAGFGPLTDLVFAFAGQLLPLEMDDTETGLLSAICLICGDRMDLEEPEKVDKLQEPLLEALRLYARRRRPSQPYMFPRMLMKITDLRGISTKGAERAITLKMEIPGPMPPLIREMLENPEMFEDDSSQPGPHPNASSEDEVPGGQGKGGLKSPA
Protocol: as §2
CV-1 cells were seeded into 96-well microtiter plate at 5,000 cells per well and cultured in DMEM (Dulbecco's Modified Eagle's Media) supplemented with 2.5% fetal bovine serum. 24 Hours later, the cells were transfected with 10 ng of pECE-RARα, long of pECE-RARγ, 100 ng of reporter plasmid and 100 ng of β-galactosidase-expression vector, using LipofectaminPlus (GIBCO BRL, grand island, N.Y.).

white guinea pigs = assay: Phototoxicity test (UVA irradiation); conditions: for Evaluation (phototoxicity): 1%(w/v) solution, UVA 15 J/cm^2; for Phototoxic index: 50 μl of 1%(w/v) solution, UVA 320~380 nm 15 J/cm^2, observed 24, 48 and 72 hours
Protocol: Test was performed for twenty-five (25) of white guinea pigs whose backs were depilated and fixed. On both sides of the back, six(6) sites of 2 cm×2 cm, three(3) per side were sectioned. Right sites were compared as controls with no irradiation (UV non-irradiation sites) and left sites were irradiated (UV irradiation sites).
30 Minutes later, right sites were shielded with aluminum foil and UVA(320˜380 nm) was irradiated at a distance of about 10 cm therefrom using Waldmann to the final energy of 15 J/cm^2. After 24, 48 and 72 hours elapsed, skin response of guinea pig was observed. […] Evaluation was estimated for each elapsed time, i.e. 24, 48 and 72 hours and maximum scores were selected, to calculate irritation index by the following equation 3. Then, phototoxic index was calculated by the following equation 4. Irritation index=(ΣMaximum of erythema+ΣMaximum of edema)/Number of animals [Equation 3] Phototoxic index=(Irritation index of UV irradiation site)−(Irritation index of UV non-irradiation site) Equation 4]

Compound	Collagen biosynthesis (%) (procollagen type I)	Collagenase expression (%) (collagenase)	Elastase expression (%) (elastase)	P.I.I. (Primary Irritation Index) (rabbits)	Evaluation (skin irritation) (rabbits)	Luciferase activity RARα (RARα)	Luciferase activity RARγ (RARγ)	Evaluation (phototoxicity) (white guinea pigs)	Phototoxic index (white guinea pigs)
CC1=C(/C=C/C(C)=C/C=C/C(C)=C/C(=O)O)C(C)(C)CCC1 [Retinoic acid, retinoic acid, reference compound]	125	60	68	1.830	Light irritation				
Cc1ccc(C(=O)Nc2ccc(C(=O)NO)cc2)cc1C [Example 9, N-[4-(N-hydroxycarbamoyl)phenyl][3,4-dimethylphenyl]carboxyamide]	120	65	67	0.470	No irritation	12000	12000	No phototoxicity (lower value than 0.5, criterion value to be estimated as no phototoxicity)	0
CCc1ccc(NC(=O)c2ccc(C(=O)NO)cc2)cc1 [Example 37, [4-(N-hydroxycarbamoyl)phenyl]-N-[4-ethylphenyl]carboxyamide]	121	70	80	0.456	No irritation	19000	10300	No phototoxicity (lower value than 0.5, criterion value to be estimated as no phototoxicity)	0
CCc1ccc(C(=O)Nc2ccc(CC(=O)NO)cc2)cc1 [Example 26, N-[4-(N-hydroxycarbamoylmethyl)phenyl][4-ethylphenyl]carboxyamide]	123	78	86	0.321	No irritation	17500	11200	No phototoxicity (lower value than 0.5, criterion value to be estimated as no phototoxicity)	0
Cc1cccc(C(=O)Nc2ccc(C(=O)NO)cc2)c1 [Example 3, N-[4-(N-hydroxycarbamoyl)phenyl][3-methylphenyl]carboxyamide]	120	80	69	0.375	No irritation	11600	10000	No phototoxicity (lower value than 0.5, criterion value to be estimated as no phototoxicity)	0
CC1=C(/C=C/C(C)=C/C=C/C(C)=C/CO)C(C)(C)CCC1 [Retinol, retinol, reference compound]	120	85	88			2500	6000		
CCCc1ccc(N(C)C(=O)c2ccc(C(=O)NO)cc2)cc1 [Example 49, [4-(N-hydroxycarbamoyl)phenyl]-N-methyl-N-[4-propylphenyl]carboxyamide]	109	81	87	0.342	No irritation	14500	12100	No phototoxicity (lower value than 0.5, criterion value to be estimated as no phototoxicity)	0
CN(O)C(=O)c1ccc(C(=O)NC23CC4CC(CC(C4)C2)C3)cc1 [Example 44, N-adamantyl [4-(N-hydroxy-N-methylcarbamoyl)phenyl]carboxyamide]						23100		No phototoxicity (lower value than 0.5, criterion value to be estimated as no phototoxicity)	
